Laboratory results taken from patent US9823260B2, “Method to increase bioavailability of the delta-opioid receptor for management of pain and neuropsychiatric disorders” (priority 2014, dated 2017).
Read-outs that look alike come from different tables or passages of the source.

Legend:
[1] = tested on: PC12 cells expressing SSF-DOR; test: Fixed cell immunofluorescence assay of DOR localization (intracellular/Golgi retention) in PC12 cells expressing SSF-DOR; assay type: cell-based, rat; conditions: for percentage of cells with internal localization of DOR within the Golgi region: PI3K inhibitor 10 μM alone; for percentage of cells with internal localization of DOR within the Golgi region / amount of cells exhibiting intracellular DOR (retention) after inhibitor alone: no NGF; for amount of cells exhibiting intracellular DOR (retention) after inhibitor alone: Wortmannin 10 μM, Chelerythrine 5 μM, PP2 10 μM, Akt ½ kinase inhibitor 1 μM
Excerpt: PC12 cells undergo neuronal specific signaling and differentiation in response to NGF.
To determine the mechanism regulating NGF-induced DOR retention, pharmacologic inhibition of known NGF-TrkA signaling molecules and quantification of the DOR localization via fixed cell immunofluorescence were employed. […]
Alternatively, it was chosen to use the neuroendocrine PC12 cell line as the model system.
To confirm that the NGF-induced internal localization is retention and not only due to increased protein production in response to NGF, the mechanistic evaluation was continued in the presence of Cycloheximide (CHX, 3 μg/mL) to inhibit new protein synthesis. […] Again referring to FIG. 3, for the evaluation of required downstream signaling targets, pharmacologic inhibition of TrkA effectors was performed to determine the pathway required for NGF-induced retention of DOR.
It was therefore sought to determine if inhibition of PI3K via treatment with Wortmannin alone was sufficient to induce intracellular retention of DOR using a fixed cell immunofluorescence assay.

[2] = tested on: SSF-DOR expressing PC12 cells; test: Fluorescence antibody internalization assay of the surface pool of DOR; assay type: cell-based, rat; conditions: 1-hour treatment; NGF 100 ng/mL, Wortmannin 10 μM, LY294002 10 μM, 740Y^PDGFR 25 μg/mL, DADLE 10 μM
Protocol: To eliminate the possibility that surface localized DOR was being actively internalized following PI3K inhibition, a fluorescence antibody internalization assay was performed in combination with pharmacologic inhibition of PI3K. SSF-DOR expressing PC12 cells were incubated with a cell-impermeable primary M1-Alexa 647 conjugated antibody to label the surface pool of receptors. The cells were treated with pharmacologic agents for 1 hour as in previous experiments, and receptor internalization was determined by adding a cell-impermeable secondary Alexa-488 conjugated antibody that recognizes the M1 primary antibody. The amount of internalization is quantified using a Pearson's Correlation Coefficient to determine the colocalization of the primary and secondary antibodies.

[3] = tested on: SSF-MOR expressed in PC12 cells; test: Fixed cell immunofluorescence assay of MOR localization in PC12 cells expressing SSF-MOR; assay type: cell-based, rat; conditions: 1-hour; NGF 100 ng/mL, Wortmannin 10 μM, LY294002 10 μM
Protocol: Previously, it was shown that the NGF-induced retention is specific to DOR and has minimal effect on MOR^37. It was therefore asked if retention of DOR via PI3K inhibition was also specific to DOR. To determine this specificity, the sufficiency of NGF, and PI3K inhibition by Wortmannin or LY294002, to promote intracellular retention of SSF-MOR expressed in PC12 cells was evaluated using the fixed cell immunofluorescence assay. Under basal no treatment conditions, SSF-MOR was prominently localized to the cell surface. Upon NGF (100 ng/mL), Wortmannin (10 μM), or LY294002 (10 μM) treatment for 1-hour, the majority of the SSF-MOR signal was localization to the cell surface with minimal overlap within the Golgi region.

[4] = tested on: primary Trigeminal Ganglion (TG) neurons transfected with SSF-DOR; test: Fixed cell immunofluorescence of DOR localization in primary Trigeminal Ganglion neurons transfected with SSF-DOR; assay type: cell-based, mice
Excerpt: To begin the example, confirmation that SSF-DOR was internally retained and localized with the Golgi complex in primary Trigeminal Ganglion (TG) sensory neurons was desired. First, primary TGs from adult mice were isolated and cultured. The SSF-DOR DNA construct was then transiently transfected into cultured TGs for subsequent localization analysis. Using a fixed-cell immunofluorescence assay, the location of SSF-DOR with an Alexa-488 conjugated anti-Flag M1 antibody was visualized, and the receptor signal was compared to an antibody against the Golgi marker GPP130. […] PC12 cells expressing SSF-DOR have a membrane localized expression pattern with little to no Golgi colocalization when analyzed via fixed cell fluorescence confocal microscopy. […]
By using the neuroendocrine PC12 cell line as our model system, PTEN inhibition was identified as a tool to prevent the internal retention of DOR following NGF administration. […] Graphical quantification of the percentage of DOR localized within the Golgi compared to the total cell DOR fluorescence is shown in FIG. 9 (top), and the Pearson's Correlation Coefficient between the DOR fluorescence and the GPP130 Golgi fluorescence in FIG. 9 (bottom).

DOR = test: cAMP EPAC FRET biosensor assay of DOR signaling in live PC12 cells; assay type: cell-based, rat
[5] = with NGF and CHX, Y-27632 5 μM, U0126 10 μM, Akt1/2 Kinase Inhibitor 500 nM, U73122 10 μM, Chelerythrine 10 μM, PP2 500 nM

For `O=c1cc(N2CCOCC2)oc2c(-c3ccccc3)cccc12` [LY294002], the “percentage of cells with internal localization of DOR within the Golgi region” value [1] was 88%.

In the case of `C[C@@H]1C[C@@H]([C@H](O)CC2CC(=O)NC(=O)C2)C(=O)[C@@H](C)C1` [CHX, Cycloheximide], the “percentage of SSF-DOR expressing PC12 cells with internal localization of DOR” value ([1]; CHX 3 μg/mL alone, 1 hour) is reported as 16%.

In the case of “NGF: Nerve Growth Factor; initiates internal retention of DOR in PC12 cells via TrkA”, the “percentage of cells with internal localization of DOR colocalized with the Golgi” value ([1]; NGF 100 ng/mL, 1 hour (FIG. 3 right)) is reported as 80%, the “percentage of transfected cells with internal localization of DOR” value ([1]; NGF 100 ng/mL, 1 hour, no CHX) is reported as 90% and the “percentage of cells imaged with internal localization of DOR” value ([1]; NGF added 1 hour before CHX addition and chased for 1 hour) is reported as 80%. For the same compound, the “colocalization of primary and secondary antibody (Pearson's Correlation Coefficient; internalization of surface DOR)” value [2] was “very strong colocalization”, the “change in intracellular retention of MOR (percentage of cells with Golgi localized MOR and percentage of MOR fluorescence within the Golgi)” value [3] was “non-significant change” and the “colocalization between DOR and GPP130 Golgi marker (Pearson's Correlation Coefficient)” value ([4]; NGF treatment) was “significant increase in colocalization”.

In the case of `COc1ccc2c(c1)CC[C@@H]1[C@@H]2CC[C@]2(C)[C@@H](NCCCCCCN3C(=O)C=CC3=O)CC[C@@H]12` [U73122], the “effect on NGF-induced retention of DOR” value [1, 5] is reported as “no statistical effect”.

`CC(C)(C)C(=O)Nc1ccc2c(c1)C(=O)C(=O)c1ccccc1-2` [SF1670] was tested, and the “effect of PTEN inhibitor on NGF-induced retention of DOR” value ([1]; with NGF 100 ng/mL, bpV(HOptic) 10 μM) was “prevented NGF-induced retention of DOR in a dose dependent manner”, the “percentage of DOR fluorescence localized with the Golgi compared to the total DOR fluorescence” value ([4]; SF1670 alone and in combination with NGF) was “decreased significantly” and the “inhibition of cAMP upon DADLE treatment after CNA blockade and PTEN inhibition” value (DOR; NGF pre-treatment, CNA blockade, SF1670 10 μM, Forskolin, DADLE) was 80%. For the same compound, the “increase of cAMP inhibition over that obtained after CNA alone” value (DOR; SF1670 10 μM after CNA versus CNA alone) was 61%.

In the case of `CC(C)C[C@@H](NC(=O)[C@H](Cc1ccccc1)NC(=O)CNC(=O)[C@@H](C)NC(=O)[C@@H](N)Cc1ccc(O)cc1)C(=O)O` [DADLE], the “colocalization of primary and secondary antibody (Pearson's Correlation Coefficient; internalization of surface DOR)” value [2] is reported as “minimal antibody colocalization” and the “inhibition of Forskolin induced cAMP by DADLE” value (DOR; 1 hour NGF pretreatment, Forskolin 5 μM, DADLE 10 μM) is reported as 81%.

`N#CC(=C(/N)Sc1ccccc1N)/C(C#N)=C(\N)Sc1ccccc1N` [U0126] was tested, and the “effect on NGF-induced retention of DOR” value [1] was “no statistical effect”.

`O=c1[nH]c2ccccc2n1C1CCN(Cc2ccc(-c3nc4cc5nc[nH]c5cc4nc3-c3ccccc3)cc2)CC1` [Akt1/2 Kinase Inhibitor] was tested, and the “amount of cells exhibiting intracellular DOR (retention) after inhibitor alone” value (from here on “amount … after inhibitor alone”) [1] was “did not significantly increase” and the “effect on NGF-induced retention of DOR” value [1, 5] was “no statistical effect”.

`C[C@@H](N)[C@H]1CC[C@H](C(=O)Nc2ccncc2)CC1` [Y-27632] was tested, and the “effect on NGF-induced retention of DOR” value [1, 5] was “no statistical effect”.

In the case of `COc1ccc2c(c[n+](C)c3c4cc5c(cc4ccc23)OCO5)c1OC` [Chelerythrine], the “amount … after inhibitor alone” value [1] is reported as “did not significantly increase” and the “effect on NGF-induced retention of DOR” value [1, 5] is reported as “no statistical effect”.

With `O=C(NCc1c(F)cccc1F)c1sccc1OCc1ccc(Cl)cc1Cl` [AS1938909] the “DOR retention in combination with NGF versus NGF treatment alone” value [1] was “not significantly different” and the “percentage of cells exhibiting Golgi localized DOR and percentage of DOR fluorescence within the Golgi” value ([1]; SHIP2 inhibitor AS1938909 10 μM only) was “significant increase”.

`CC(C)(C)n1nc(-c2ccc(Cl)cc2)c2c(N)ncnc21` [PP2] was tested, and the “amount … after inhibitor alone” value [1] was “did not significantly increase” and the “effect on NGF-induced retention of DOR” value [1, 5] was “no statistical effect”.

In the case of `COC[C@H]1OC(=O)c2coc3c2[C@@]1(C)C1=C(C3=O)[C@@H]2CCC(=O)[C@@]2(C)C[C@H]1OC(C)=O` [Wortmannin], the “percentage of cells with internal localization of DOR” value ([1]; NGF 100 ng/ml and Wortmannin 10 μM) is reported as 87%, the “percentage of cells with internal localization of DOR within the Golgi region” value [1] is reported as 88% and the “percentage of cells with intracellular retention of DOR” value ([1]; Wortmannin 10 μM in combination with NGF, 1-hour CHX chase) is reported as 97%.
